“Also recorded” adds a separate entry of the source.
What was measured:
Format in all cases: in vivo, mouse
[1] = test system: cholesterol and bile salt absorption; experiment: Intestinal absorption of cholesterol and bile salts by fecal excretion of neutral and acidic sterols; conditions: for Fecal excretion of bile acids / Fecal excretion of neutral sterols: pooled feces; for Fecal excretion of bile acids: days 12-14; for Fecal excretion of neutral sterols: last three days of 14
Experimental: Surgery and sample harvest. The groups were maintained for 14 days (protocol #1) or 30 days (protocol #2) in the different experimental conditions. During the last three days of the protocols, 24 h depositions were collected from the different groups (pool) to determine the fecal excretion of neutral sterols (cholesterol) and acidic sterols (bile salts). At the end of the time established in the protocols, the mice were anesthetized (between 08:00-10:00 AM) with an intraperitoneal pentobarbital injection in doses of 4.5 mg per 100 gr body weight (Amigo et al., 2000) and subjected to surgery. Standardized surgery consists in an extended […] and visualization of abdominal organs, including liver, biliary tree and gallbladder. First, we performed a resection of the gallbladder (cholecystectomy), with the cystic duct previously ligated (Amigo et al., 2002; Amigo et al., 2000; Amigo et al., 2003b). The gallbladder is removed and visually inspected to determine the presence of gallstones. Then, the gallbladder bile is extracted to analyze the presence of cholesterol crystals in the fresh samples under the microscope with polarized light (20×). Aliquots are stored at −20° C. for subsequent chemical analysis. Afterwards, the common biliary duct is cannulated (biliary fistula) with a P-10 polyethylene cannula to collect bile during 15 minutes, determine bile flow by gravimetry (1 g bile=1 ml; bile flow is expressed as μl/min/g of mouse liver) and for posterior chemical analysis of biliary lipids and glutathione, as specified later. […] Then, the liver is removed, weighted, frozen in liquid nitrogen and stored at −80 for subsequent analyses. The plasma is separated by centrifugation at 1,500 rpm and stored at −80° C. for later analysis. The animal protocols were approved by our institution Ethics Committee and the animals were treated according to international care rules for experimental animals.
Intestinal absorption of cholesterol and bile salts. The capacity of Ezetimibe to inhibit cholesterol and bile salt absorption was indirectly determined by quantification of neutral sterols (cholesterol) and acidic sterols (bile acids) present in the feces collected on day 12, 13 and 14 of the experiment (three days). In order to determine cholesterol (neutral sterols) fecal excretion, the feces were dried at 50° C. for three days and then weighted to obtain an average of fecal excretion per day (in grams). The feces were homogenized in a mortar, and 5 ml 2N NaOH:methanol, 1:1 are added per 100 mg (dry weight) aliquots of the homogenate. The sample is vortex and incubated at 60° C. for 1 h for saponification, then it is cooled and 5 ml petroleum ether is added followed by vigorous agitation to obtain the separation of the hydrophobic and hydrophilic phases. The samples are then centrifuged at 1,000 rpm for 10 minutes and the hydrophobic phase (upper layer) is recovered. Second and third extractions are performed by adding 5 ml petroleum ether to the hydrophilic phase. The hydrophobic phases are dried under gaseous nitrogen and the lipids are resuspended in 1 ml chloroform. 50 μl aliquots, in duplicate, are dried at room temperature, and total cholesterol is quantified according to the enzymatic method described above. The values obtained are expressed as μmoles cholesterol/day/100 g of mouse (Miettinen et al., 1965). In order to determine fecal excretion of bile acids the mice feces were collected during three days (days 12-14), dried at 50° C. for one week and weighted. The feces are then homogenized in a mortar; (^14C) cholic acid, 200,000 cpm is added to 1 g of the homogenate to determine the degree of recovery. The samples are then mixed with NaBr, NaOH and HCl, dissolved in ethanol and incubated at 120° C. for 8 h in a reflux system. The hydrolyzed fecal samples are resuspended in NaOH and dried under gaseous N2. The pellet obtained is resuspended in ethanol and run through Sep-Pak columns to eliminate all bile salts contaminants. […]

[2] = test system: Bsep; experiment: Hepatic expression of bile salts transporter Bsep (Western blot)
Text: (§1) Expression of Specific Bile Salts (Ntcp, Bsep), Phospholipid (MDR2) and Organic Anions or Glutathione (MRP2); And Determination of Glutathione Synthesis (Gluthamylcystein-Synthetase (GGCS)).
Western Blot analysis. We evaluated protein expression levels of the bile salts transporters Ntcp (sinusoidal pole) and Bsep (cannicular pole) by Western blotting in total liver membranes or liver plasma membranes from mice treated with the different diets. Total membranes were obtained from liver fragments homogenized in Tris-HCl pH 7.5, MgCl2 and sucrose. The homogenates were centrifuged at 1,000 g to separate nuclei, and the supernatants were then centrifuged at 100,000 g. The pellet, containing the total membranes, was resuspended in the buffer described above and proteins were quantified by the Bradford method. Aliquots containing 50 μg protein were separated by SDS-PAGE and transfer to nitrocellulose. The membranes were incubated in buffer TBS-T (Tris-HCl pH 7.5, NaCl and Tween-20), milk 5% w/v plus the antibodies to evaluate the different proteins (Bsep, Ntcp). The secondary antibodies were IgG anti rabbit or anti mouse coupled to peroxidase. The protein signals were detected by the ECL method.

[3] = test system: MDR2; experiment: Hepatic expression of phospholipid transporter MDR2 (Northern blot)
Experimental: as §1
Total RNA extraction. 80 mg hepatic tissue frozen at −70° C. was homogenized in 800 μl solution D, following the method described by Chomczynski and Sacchi, 1987. The RNA concentration was calculated by measuring the absorbance at 260 nm and its purity by the ratio OD260/OD280. The samples are stored at −20° C. RNA electrophoresis. 10 μg of total RNA are dried under gaseous N2 or vacuum for 10 minutes. 10 μl loading buffer were added, and the samples heated to 65° C., loaded into a denaturing 1% agarose/formaldehyde gel and run at 100 volts for 4 hours. The RNA integrity was determined by the clear visualization of the 28 S and 18 S ribosomal RNAs (FIG. 8).
Northern Blot and hybridization with radioactive probes. The gel with the RNA samples is washed with DEPC H2O for 10 minutes to eliminate formaldehyde and then incubated for 20 minutes with 50 mM NaOH for partial RNA hydrolysis. After a 10 minute wash with DEPC H2O to eliminate NaOH, the samples are transferred from the gel to Nylon membranes (Hybond-N, Amersham Pharmacia) over night by a capillary system. […]
Probe labeling by “de novo synthesis”. […] The percentage of incorporated radioactivity into the probe was always over 60%. […]

For `O=C1[C@H](CC[C@H](O)c2ccc(F)cc2)[C@@H](c2ccc(O)cc2)N1c1ccc(F)cc1` [Ezetimibe, (−)-1-(4-fluorophenyl)-(3R)-[3-(4-fluorophenyl)-(.S)-hydroxypropyl]-(4S)-(4-hydroxyphenyl)-2-azetidinone], the “Fecal excretion of bile acids” value ([1]; Chow + Ezetimibe) was 55.42 μmol/day/100 g mouse, the “Fecal excretion of neutral sterols” value ([1]; Chow + Ezetimibe) was 19.98 μmol/day/100 g mouse and the “Fecal excretion of bile acids” value ([1]; Lithogenic + Ezetimibe) was 909.20 μmol/day/100 g mouse. The “Fecal excretion of neutral sterols” value ([1]; Lithogenic + Ezetimibe) was 165.79 μmol/day/100 g mouse, the “effect on fecal excretion of bile salts” value ([1]; both on control and lithogenic diets) was “does not significantly affect” and the “increment of fecal excretion of neutral sterols vs control diet without Ezetimibe” value ([1]; control diet) was 37%. The “fecal excretion of neutral sterols (cholesterol) higher than in mice not treated with Ezetimibe” value ([1]; lithogenic diet) was 55%, the “hepatic expression of Bsep, lithogenic diet plus Ezetimibe vs lithogenic diet” value ([2]; 14 days) was “no significant differences” and the “Bsep hepatic protein expression level with Ezetimibe” value ([2]; FIG. 6 A, on both diets) was “does not show significant changes”. For the same compound, the “phospholipid transporter MDR2 at the mRNA level” value ([3]; lithogenic diet plus Ezetimibe vs lithogenic diet, 14 days) was “small but statistically significant decrease; also recorded: slight but statistically significant decrease” and the mdr2 protein levels ([3]; lithogenic diet plus Ezetimibe, data not shown) was “no concomitant decrease”.

Source: patent US8361999B2, “Methods of treating cholesterol gallstone disease with ezetimibe” (Pontificia Universidad Catolica de Chile, priority 2005, dated 2013)
